In ChEMBL document CHEMBL5126523, “Recent advances in DDR (DNA damage response) inhibitors for cancer therapy” (Eur J Med Chem, 2022):

Key:
ATR/ATRIP [1] = target: T1, ATR/ATRIP (Homo sapiens, UniProt Q13535); test: Inhibition of full-length human recombinant FLAG-tagged ATR/c-Myc-tagged ATRIP using p53 as substrate incubated for 30 mins in presence of ATP by fluorescence based assay; format: protein-complex assay
DU-145 = test: Inhibition of cell proliferation in human DU-145 cells incubated for 4 days by MTT assay; format: functional, cell-based; settings: DU-145, 96 h
NCI-H460 = test: Inhibition of cell proliferation in human NCI-H460 cells incubated for 4 days by MTT assay; format: functional, cell-based; settings: NCI-H460, 96 h
HCT-116 [2] = test: Inhibition of cell proliferation in human HCT-116 incubated for 48 hrs by Cell Titer Glo assay; format: functional, cell-based; settings: HCT-116, 48 h
NCI-H23 = test: Inhibition of cell proliferation in human NCI-H23 incubated for 48 hrs by Cell Titer Glo assay; format: functional, cell-based; settings: NCI-H23, 48 h
ATR/ATRIP [3] = target: T1, ATR/ATRIP; test: Inhibition of full-length recombinant human ATR/ATRIP using p53 as substrate incubated for 30 mins in presence of ATP by HTRF assay; format: protein-complex assay
[4] = target: T2, Poly [ADP-ribose] polymerase 1 (Homo sapiens, UniProt P09874); test: Inhibition of N-terminal GST-tagged recombinant human PARP1 (2 to 1014 residues) expressed in Sf9 insect cells incubated for 1 hr by colorimetric assay
LoVo = test: Inhibition of cell growth in human LoVo cells assessed as measuring ATP content incubated for 3 days by Cell Titer Glo assay; format: functional, cell-based; settings: 72 h
ATR/ATRIP [5] = target: T1, ATR/ATRIP; test: Inhibition of human FLAG-tagged ATR/c-Myc-tagged ATRIP expressed in mammalian expression system using p53 as substrate incubated for 2 hrs by fluorescence based assay
[6] = target: T3, Serine-protein kinase ATM (Homo sapiens, UniProt Q13315); test: Inhibition of ATM in human MCF7 cells […] incubated for 1 hr by Cell Western assay; format: cell-based
[7] = target: T4, DNA-dependent protein kinase catalytic subunit (Homo sapiens, UniProt P78527); test: Inhibition of full-length human DNA-PK expressed in baculovirus expression system using p53 as substrate incubated for 1 hr in presence of ATP by ELISA
T4 sequence (P78527 whole entry): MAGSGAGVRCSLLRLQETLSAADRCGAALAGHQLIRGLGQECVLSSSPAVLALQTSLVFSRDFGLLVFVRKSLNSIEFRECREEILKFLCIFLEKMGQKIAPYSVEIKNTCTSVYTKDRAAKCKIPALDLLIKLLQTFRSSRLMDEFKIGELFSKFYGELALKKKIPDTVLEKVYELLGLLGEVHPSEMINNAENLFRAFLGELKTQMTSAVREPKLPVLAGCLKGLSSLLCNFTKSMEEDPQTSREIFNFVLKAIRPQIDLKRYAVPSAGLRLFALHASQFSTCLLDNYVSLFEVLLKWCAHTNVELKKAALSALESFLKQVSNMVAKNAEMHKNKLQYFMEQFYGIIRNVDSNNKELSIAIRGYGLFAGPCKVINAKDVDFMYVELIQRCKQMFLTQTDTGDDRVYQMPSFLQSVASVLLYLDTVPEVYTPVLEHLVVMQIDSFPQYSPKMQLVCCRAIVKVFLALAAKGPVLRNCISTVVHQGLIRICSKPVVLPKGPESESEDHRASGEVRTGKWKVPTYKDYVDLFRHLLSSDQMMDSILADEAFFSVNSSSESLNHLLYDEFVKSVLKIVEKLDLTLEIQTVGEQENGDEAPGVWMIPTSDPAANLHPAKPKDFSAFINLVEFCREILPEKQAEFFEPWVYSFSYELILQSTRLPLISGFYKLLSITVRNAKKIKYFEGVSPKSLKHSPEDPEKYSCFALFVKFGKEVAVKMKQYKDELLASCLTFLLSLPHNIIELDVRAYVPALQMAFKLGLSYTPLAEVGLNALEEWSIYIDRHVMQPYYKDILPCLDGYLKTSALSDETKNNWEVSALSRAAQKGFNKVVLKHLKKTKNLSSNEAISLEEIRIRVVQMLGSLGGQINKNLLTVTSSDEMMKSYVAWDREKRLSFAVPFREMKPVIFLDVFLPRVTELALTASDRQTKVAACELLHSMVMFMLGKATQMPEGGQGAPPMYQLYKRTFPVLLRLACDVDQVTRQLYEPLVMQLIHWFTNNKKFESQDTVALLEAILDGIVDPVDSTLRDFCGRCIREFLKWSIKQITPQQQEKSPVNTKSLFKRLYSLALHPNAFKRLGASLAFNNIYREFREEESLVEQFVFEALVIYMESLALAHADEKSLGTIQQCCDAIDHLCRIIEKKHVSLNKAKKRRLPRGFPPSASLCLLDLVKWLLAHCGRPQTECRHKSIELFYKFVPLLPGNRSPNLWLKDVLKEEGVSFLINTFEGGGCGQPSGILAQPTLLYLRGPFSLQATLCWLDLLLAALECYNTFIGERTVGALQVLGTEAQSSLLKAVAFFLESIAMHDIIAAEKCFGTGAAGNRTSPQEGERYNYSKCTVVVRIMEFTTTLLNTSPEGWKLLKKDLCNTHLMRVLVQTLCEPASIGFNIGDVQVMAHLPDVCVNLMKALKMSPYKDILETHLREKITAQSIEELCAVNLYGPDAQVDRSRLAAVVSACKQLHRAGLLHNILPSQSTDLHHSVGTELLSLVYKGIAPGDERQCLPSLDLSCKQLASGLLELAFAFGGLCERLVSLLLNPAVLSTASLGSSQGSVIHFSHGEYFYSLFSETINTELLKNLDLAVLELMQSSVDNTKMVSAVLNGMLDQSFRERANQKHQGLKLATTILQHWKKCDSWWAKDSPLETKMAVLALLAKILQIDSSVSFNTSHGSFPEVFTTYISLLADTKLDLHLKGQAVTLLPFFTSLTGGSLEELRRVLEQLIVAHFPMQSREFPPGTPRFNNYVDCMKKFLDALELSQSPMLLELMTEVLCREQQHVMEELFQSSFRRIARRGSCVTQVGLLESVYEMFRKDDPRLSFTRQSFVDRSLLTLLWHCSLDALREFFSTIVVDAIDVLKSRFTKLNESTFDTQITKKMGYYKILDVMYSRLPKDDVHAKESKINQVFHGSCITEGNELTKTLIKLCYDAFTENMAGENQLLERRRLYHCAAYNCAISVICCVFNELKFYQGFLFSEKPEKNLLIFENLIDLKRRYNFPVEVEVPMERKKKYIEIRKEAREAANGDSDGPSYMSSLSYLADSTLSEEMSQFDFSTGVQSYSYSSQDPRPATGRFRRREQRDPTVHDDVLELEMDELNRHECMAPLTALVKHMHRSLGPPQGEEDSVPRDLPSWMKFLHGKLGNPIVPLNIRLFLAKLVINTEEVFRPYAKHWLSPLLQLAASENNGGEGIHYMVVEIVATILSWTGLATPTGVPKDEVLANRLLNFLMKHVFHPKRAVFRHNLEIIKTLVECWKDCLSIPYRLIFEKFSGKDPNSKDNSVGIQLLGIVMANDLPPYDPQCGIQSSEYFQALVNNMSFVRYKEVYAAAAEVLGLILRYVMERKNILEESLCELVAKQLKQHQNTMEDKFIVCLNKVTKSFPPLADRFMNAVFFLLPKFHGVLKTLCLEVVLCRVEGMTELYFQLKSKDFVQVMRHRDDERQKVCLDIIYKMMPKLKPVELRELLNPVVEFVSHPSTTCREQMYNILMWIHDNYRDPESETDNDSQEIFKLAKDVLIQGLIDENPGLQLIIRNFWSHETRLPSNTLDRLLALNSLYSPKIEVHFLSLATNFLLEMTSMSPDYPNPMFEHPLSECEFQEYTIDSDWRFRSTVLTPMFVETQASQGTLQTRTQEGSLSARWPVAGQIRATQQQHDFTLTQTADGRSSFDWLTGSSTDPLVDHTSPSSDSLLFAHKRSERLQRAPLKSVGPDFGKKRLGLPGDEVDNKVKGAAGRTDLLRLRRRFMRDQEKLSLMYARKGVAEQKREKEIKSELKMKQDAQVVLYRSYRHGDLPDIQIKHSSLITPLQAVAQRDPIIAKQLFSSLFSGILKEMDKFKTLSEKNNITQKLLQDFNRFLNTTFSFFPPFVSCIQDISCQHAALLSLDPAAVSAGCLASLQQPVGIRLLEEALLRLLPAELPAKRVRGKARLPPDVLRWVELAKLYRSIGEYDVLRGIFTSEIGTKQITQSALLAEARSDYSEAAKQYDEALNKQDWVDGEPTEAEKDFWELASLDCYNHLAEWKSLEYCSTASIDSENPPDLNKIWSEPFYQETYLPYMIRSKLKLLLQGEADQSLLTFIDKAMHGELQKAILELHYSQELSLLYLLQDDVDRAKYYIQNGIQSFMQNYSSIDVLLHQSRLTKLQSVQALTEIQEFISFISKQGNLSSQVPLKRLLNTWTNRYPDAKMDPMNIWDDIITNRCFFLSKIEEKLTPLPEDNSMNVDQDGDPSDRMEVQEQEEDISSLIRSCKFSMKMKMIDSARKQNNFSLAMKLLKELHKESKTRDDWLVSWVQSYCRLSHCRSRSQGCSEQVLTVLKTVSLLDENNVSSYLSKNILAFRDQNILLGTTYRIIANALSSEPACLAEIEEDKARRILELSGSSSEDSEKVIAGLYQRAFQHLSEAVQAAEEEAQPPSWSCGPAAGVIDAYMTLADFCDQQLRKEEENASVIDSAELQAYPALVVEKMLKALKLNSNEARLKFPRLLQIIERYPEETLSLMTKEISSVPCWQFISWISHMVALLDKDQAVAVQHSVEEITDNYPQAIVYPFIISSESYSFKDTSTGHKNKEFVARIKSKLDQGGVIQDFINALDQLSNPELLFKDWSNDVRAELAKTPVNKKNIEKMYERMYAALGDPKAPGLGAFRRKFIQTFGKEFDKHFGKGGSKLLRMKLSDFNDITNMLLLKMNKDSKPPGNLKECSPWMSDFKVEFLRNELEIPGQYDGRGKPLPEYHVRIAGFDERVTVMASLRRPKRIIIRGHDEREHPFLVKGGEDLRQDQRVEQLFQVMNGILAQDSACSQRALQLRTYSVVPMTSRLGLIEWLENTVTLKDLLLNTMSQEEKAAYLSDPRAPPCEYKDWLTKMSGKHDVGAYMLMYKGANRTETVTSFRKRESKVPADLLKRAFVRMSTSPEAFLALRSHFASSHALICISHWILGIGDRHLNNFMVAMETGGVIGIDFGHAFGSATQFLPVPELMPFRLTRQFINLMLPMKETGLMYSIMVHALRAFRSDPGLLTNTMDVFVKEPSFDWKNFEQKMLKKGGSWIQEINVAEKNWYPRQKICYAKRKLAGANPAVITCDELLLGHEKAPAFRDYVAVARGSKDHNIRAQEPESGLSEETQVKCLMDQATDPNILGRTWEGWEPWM

[8] = target: Poly [ADP-ribose] polymerase tankyrase-2 (Homo sapiens, UniProt Q9H2K2); test: Inhibition of tankyrase 2 (unknown origin) incubated for 1 hr by chemiluminescence based assay
[9] = target: T2, Poly [ADP-ribose] polymerase 1; test: Inhibition of PARP1 (unknown origin) incubated for 1 hr by chemiluminescence assay
[10] = target: Poly [ADP-ribose] polymerase tankyrase-1 (Homo sapiens, UniProt O95271); test: Inhibition of tankyrase 1 (unknown origin) incubated for 1 hr by chemiluminescence assay
Wee1-like protein kinase = Wee1-like protein kinase (Homo sapiens, UniProt P30291); test: Displacement of tracer 178 from WEE1 (unknown origin) incubated for 1 hr by Lantha Screen assay
Sequence of Wee1-like protein kinase (P30291 whole entry): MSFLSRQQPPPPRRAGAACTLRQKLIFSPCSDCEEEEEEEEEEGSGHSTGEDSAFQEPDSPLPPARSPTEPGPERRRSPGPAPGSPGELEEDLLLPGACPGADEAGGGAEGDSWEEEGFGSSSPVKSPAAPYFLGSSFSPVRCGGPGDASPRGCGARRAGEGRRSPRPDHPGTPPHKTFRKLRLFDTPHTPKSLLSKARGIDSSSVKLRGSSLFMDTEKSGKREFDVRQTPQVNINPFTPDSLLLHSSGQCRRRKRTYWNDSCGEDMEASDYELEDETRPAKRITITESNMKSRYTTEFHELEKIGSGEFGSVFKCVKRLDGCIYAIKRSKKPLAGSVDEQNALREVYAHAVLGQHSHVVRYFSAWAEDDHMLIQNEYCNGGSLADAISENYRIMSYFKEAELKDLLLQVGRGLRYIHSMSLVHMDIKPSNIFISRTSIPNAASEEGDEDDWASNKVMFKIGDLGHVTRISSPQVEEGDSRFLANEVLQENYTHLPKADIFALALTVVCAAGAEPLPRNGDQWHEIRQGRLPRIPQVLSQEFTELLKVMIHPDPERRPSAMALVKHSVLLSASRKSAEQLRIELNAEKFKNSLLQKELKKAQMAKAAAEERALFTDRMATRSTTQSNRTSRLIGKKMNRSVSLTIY

[11] = target: T4, DNA-dependent protein kinase catalytic subunit; test: Inhibition of DNA-PK (unknown origin) incubated for 3 hrs by ADP-Glo kinase assay
[12] = Oral bioavailability in BALB/c mouse at 2 mg/kg by LC-MS/MS analysis; format: ADME, organism-based; settings: in vivo
ATR/ATRIP [13] = target: T1, ATR/ATRIP; test: Inhibition of full-length human recombinant FLAG-tagged ATR/c-Myc-tagged ATRIP using p53 as substrate incubated for 30 mins in presence of ATP by HTRF assay; format: protein-complex assay
[14] = target: Phosphatidylinositol 4,5-bisphosphate 3-kinase catalytic subunit alpha isoform (Homo sapiens, UniProt P42336); test: Inhibition of PI3K-alpha (unknown origin)
Homo sapiens [15] = organism: Homo sapiens; test: Selectivity index, ratio of IC50 for ATM (unknown origin) to IC50 for PI3K-alpha (unknown origin)
[16] = target: Serine/threonine-protein kinase ATR (Homo sapiens, UniProt Q13535); test: Inhibition of ATR (unknown origin)
[17] = target: Serine/threonine-protein kinase mTOR (Homo sapiens, UniProt P42345); test: Inhibition of mTOR (unknown origin)
Homo sapiens [18] = organism: Homo sapiens; test: Selectivity index, ratio of IC50 for ATM (unknown origin) to IC50 for mTOR (unknown origin)
Homo sapiens [19] = organism: Homo sapiens; test: Selectivity index, ratio of IC50 for ATM (unknown origin) to IC50 for ATR (unknown origin)
[20] = target: T3, Serine-protein kinase ATM; test: Inhibition of ATM (unknown origin)
NCI-H1299 = test: Inhibition of cell proliferation in human NCI-H1299 cells incubated for 3 days by MTT assay; format: functional, cell-based; settings: NCI-H1299, 72 h
MDA-MB-231 = test: Inhibition of cell proliferation in human MDA-MB-231 cells incubated for 72 hrs by SRB assay; format: functional, cell-based; settings: MDA-MB-231, 72 h
HCT-116 [21] = test: Inhibition of cell proliferation in human HCT-116 cells incubated for 72 hrs by SRB assay; format: functional, cell-based; settings: HCT-116, 72 h
HCC1937 = test: Inhibition of cell proliferation in human HCC1937 cells incubated for 72 hrs by SRB assay; format: functional, cell-based; settings: HCC1937, 72 h
[22] = Cmax in BALB/c mouse at 2 mg/kg, po by LC-MS/MS analysis; format: ADME, organism-based; design: dose 2 mg/kg, route po; settings: in vivo
[23] = target: T4, DNA-dependent protein kinase catalytic subunit; test: Inhibition of DNA-PK (unknown origin) assessed as inhibition constant using Glu-Pro-Pro-Leu-Ser-Gln-Glu-Ala-Phe-Ala-Asp-Leu-Trp-Lys-Lys-Lys peptide as substrate incubated for 45 mins in presence of [33P]-ATP by scintillation counting method

For C[C@@H]1COCCN1c1cc(-c2ccnn2C)c2ncc(-c3ccn[nH]3)n2n1, the IC50 (ATR/ATRIP [1]) was 938 nM, the IC50 (DU-145) was 1220 nM and the IC50 (NCI-H460) was 907 nM.
CNc1nc2ccc(F)cc2n1-c1nc(-c2ccnn2C)cc(N2CCOC[C@H]2C)n1 gave an IC50 (HCT-116 [2]) of less than 10000 nM, an IC50 (NCI-H23) of less than 10000 nM and an IC50 (ATR/ATRIP [3]) of less than 500 nM.
With NC(=O)c1cccc2cn(-c3ccc([C@@]4(F)CCCNC4)cc3)nc12 the IC50 [4] was less than 100 nM.
C[C@@H]1COC[C@H]2COc3c(nc(-c4ccnc5[nH]ccc45)nc3C3(S(C)(=N)=O)CC3)N21 (some centres not stated) gave an IC50 (LoVo) of 699 nM and an IC50 (ATR/ATRIP [5]) of 4 nM.
Work on C[C@@H]1COCCN1c1nc(C(C)(C)C#N)c2[nH]nc(-c3ccn[nH]3)c2n1 yielded an IC50 (LoVo) of 55 nM and an IC50 (ATR/ATRIP [5]) of 3 nM.
For CN(C)CCCOc1ncc(-c2ccc3ncc4c(c3c2)C2(CCC2)C(=O)N4C)cc1NS(=O)(=O)C(F)(F)F, the IC50 [6] was 1 nM and the IC50 [7] was 1 nM.
With COc1ccccc1NC(=O)c1ccc(NC(=O)N2CCN(C(=O)c3cc(Cc4n[nH]c(=O)c5ccccc45)ccc3F)CC2)cc1 the IC50 [8] was 6.45 nM, the IC50 [9] was 0.59 nM and the IC50 [10] was 34.8 nM.
C=CCn1c(=O)c2cnc(Nc3ccc4c(c3)OC[C@@H]3CN(C)CCN43)nc2n1-c1ccc(C(C)(C)O)cn1 gave an IC50 (Wee1-like protein kinase) of 2.49 nM.
In the case of Cc1ncc(-c2cc(NC[C@H](C)c3cccc4c(C5=NCCN5)ccnc34)ncn2)cn1, the IC50 [11] is reported as 122 nM.
Molecule Cc1cc2ncnn2cc1Nc1ncc2c(n1)C1(CCC(C)(C)CC1)C(=O)N2C has a bioavailability [12] of 114%.
C[C@@H]1COCCN1c1nc(-c2nncc3[nH]ccc23)nc2c1OC1CC2(S(C)(=O)=O)C1 gave an IC50 (LoVo) of 20.3 nM and an IC50 (ATR/ATRIP [13]) of 104 nM.
In the case of CC(C)n1c(=O)n(C)c2cnc3ccc(-c4ccc(OCCCN(C)C)nc4)cc3c21, the IC50 [14] is reported as greater than 10000 nM, the Ratio IC50 (Homo sapiens [15]) is reported as greater than 1000 and the IC50 [16] is reported as greater than 30000 nM. For the same molecule, the IC50 [17] was greater than 10000 nM, the Ratio IC50 (Homo sapiens [18]) was greater than 1000 and the Ratio IC50 (Homo sapiens [19]) was greater than 1000. It also gave an IC50 [20] of 3.98 nM.
CC(C)n1c(=O)n(C)c2cnc3ccc(-c4ccc(OCCCN5CCCC5)nc4)cc3c21 showed an IC50 [14] greater than 10000 nM, a Ratio IC50 (Homo sapiens [15]) greater than 1000 and an IC50 [16] greater than 30000 nM. For the same molecule, the IC50 [17] was greater than 10000 nM, the Ratio IC50 (Homo sapiens [18]) was greater than 1000 and the Ratio IC50 (Homo sapiens [19]) was greater than 1000. The IC50 [20] was 1.59 nM.
In the case of C[C@@H]1CN(c2ccc(Nc3cc4c(cn3)C(=O)N(c3c(Cl)cccc3Cl)C3=NCCN34)cc2)C[C@H](C)N1C, the IC50 (NCI-H1299) is reported as 105 nM.
NC(=O)c1cccc2cc(C(=O)N3CCN(c4nc(-c5cnc(N)cc5C(F)(F)F)nc(N5CCOCC5)n4)CC3)oc12 showed an IC50 (MDA-MB-231) of 3410 nM, an IC50 (HCT-116 [21]) of 193 nM and an IC50 (HCC1937) of 166 nM.
Molecule Cc1cc2ncnn2cc1Nc1ncc2c(n1)C1(CCC3(CC3)CC1)C(=O)N2C has a bioavailability [12] of 83% and a Cmax [22] of 2170 nM.
In the case of C[C@@H]1CN(c2cc(O[C@H]3CC[C@@H](Nc4ncccn4)CC3)c3nccnc3c2)CCO1, the Ki [23] is reported as less than 100 nM.
Nc1ncc(-c2nc3c(c(N4CCOCC4)n2)CCN(C(=O)c2cc(Cc4n[nH]c(=O)c5ccccc45)ccc2F)C3)cn1 gave an IC50 (MDA-MB-231) of 443 nM, an IC50 (HCT-116 [21]) of 211 nM and an IC50 (HCC1937) of 81 nM.
For CN1CCN(c2ccc(Nc3cc4c(cn3)C(=O)N(c3ccccc3Cl)C3=NCCN34)cc2)CC1, the IC50 (NCI-H1299) was 154 nM.
For C=CCn1c(=O)c2cnc(Nc3ccc4c(c3)OC[C@@H]3C[C@@H](N(C)C)CN43)nc2n1-c1ccc(C(C)(C)O)cn1, the IC50 (Wee1-like protein kinase) was 4.78 nM.
